Here are results for four compounds from patent US7375058B2, “Herbicidal mixtures based on 3-phenyluracils” (priority 2002, dated 2008).

Each structure is given as a SMILES string. Structures can show the parent of a compound that is named as a salt.

The test system of data set [1] is AVEFA. Put plainly: Greenhouse post-emergence herbicidal action against AVEFA. The format is in vivo, Avena fatua. The text has this: (§1) For the post-emergence treatment, the test plants were first grown to a height of 3 to 20 cm, depending on the plant habit, and only then treated. Here, the herbicidal compositions were suspended or emulsified in water as distribution medium and sprayed using finely distributing nozzles
(§2) The respective components A and B and/or C were formulated as 10% by weight strength emulsion concentrate and introduced to the spray liquor with the amount of solvent system used for applying the active compound. In the examples, the solvent used was water.
(§3) The test period extended over 21 days. During this time, the plants were tended, and their response to the treatments with active compound was evaluated.
(§4) The evaluation for the damage caused by the chemical compositions was carried out using a scale from 0 to 100%, compared to the untreated control plants. Here, 0 means no damage and 100 means complete destruction of the plants.
(§5) In the examples below, the value E which is to be expected if the activity of the individual compounds is just additive was calculated using the method of S. R. Colby (1967) “Calculating synergistic and antagonistic responses of herbicide combinations”, Weeds 15, p. 22 ff. E=X+Y−([…]) where • X=effect in percent using active compound A at an application rate a; • Y=effect in percent using active compound B at an application rate b; • E=expected effect (in %) of A+B at application rates a+b.
(§6) If the observed effect is higher than the value E calculated according to Colby, a synergistic effect is present.

The subject of data set [2] is ABUTH. The experiment in a line: Greenhouse post-emergence herbicidal action against ABUTH. The format is in vivo, Abutilon theophrasti.
From the text: as §1, §2, §3, §4, §5, §6

Data set [3] deals with AMARE. Put plainly: Greenhouse post-emergence herbicidal action against AMARE. Format: in vivo, Amaranthus retroflexus.
From the text: as §1, §2, §3, §4, §5, §6

The subject of data set [4] is BIDPI. The experiment in a line: Greenhouse post-emergence herbicidal action against BIDPI. Format: in vivo, Bidens pilosa.
From the text: as §1, §2, §3, §4, §5, §6

Data set [5] has as its system POLPE. The experiment in a line: Greenhouse post-emergence herbicidal action against POLPE. Format: in vivo, Polygonum persicaria. The conditions noted are these: 21 days.
From the text: as §1, §2, §3, §4, §5, §6

The subject of data set [6] is GALAP. The experiment in a line: Greenhouse post-emergence herbicidal action against GALAP. Format: in vivo, Galium aparine.
From the text: as §1, §2, §3, §4, §5, §6

The test system of data set [7] is TRZAW. Put plainly: Pre-emergence safener action (crop damage) in TRZAW. Format: in vivo, Triticum aestivum (Winter wheat). Conditions: 21 days. How it is done: as §4
(§7) In the examples below, the mixtures were applied by the pre-emergence method. To this end, the test plants were initially sown and covered with a thin layer of soil. Afterward (i.e. prior to the germination of the test plants), the mixtures according to the invention were sprayed onto the soil as an aqueous spray liquor at the stated application rate. As in the post-emergence method described above, the test period was 21 days. The damage was then evaluated as described above using a scale from 0 to 100% damage in comparison to untreated control plants (0% damage).
(§8) A safener action is present if the damage to the crop plant caused by using a mixture according to the invention which contains a safener C) is less than the damage caused when active compound A or active compounds A and B are used without safener.

The test system of data set [8] is ECHCG. The experiment in a line: Greenhouse post-emergence herbicidal action against ECHCG. The format is in vivo, Echinochloa crus-galli.
From the text: as §1, §2, §3, §4, §5, §6

Data set [9] deals with COMBE. The experiment in a line: Greenhouse post-emergence herbicidal action against COMBE. Format: in vivo, Commelina benghalensis.
From the text: as §1, §2, §3, §4, §5, §6

Data set [10] relates to POAPR. Put plainly: Pre-emergence herbicidal action against POAPR. Conditions: 21 days. The format is in vivo, Poa pratensis. As for the experimental part:
as §4, §7, §8

Data set [11] deals with TRFPR. Put plainly: Pre-emergence herbicidal action against TRFPR. Format: in vivo, Trifolium pratense. The conditions noted are these: 21 days. As for the experimental part:
as §4, §7, §8

Data set [12] has as its system BRAPL. The experiment in a line: Greenhouse post-emergence herbicidal action against BRAPL. The format is in vivo, Brachiaria plantaginea.
From the text: as §1, §2, §3, §4, §5, §6

The subject of data set [13] is SETFA. Put plainly: Greenhouse post-emergence herbicidal action against SETFA. The format is in vivo, Setaria faberii.
From the text: as §1, §2, §3, §4, §5, §6

Data set [14] concerns ALOMY. Put plainly: Greenhouse post-emergence herbicidal action against ALOMY. The format is in vivo, Alopecurus myosuroides. The conditions noted are these: 21 days.
From the text: as §1, §2, §3, §4, §5, §6

Where [15] appears, read: I.1 1.95 g/ha and/or b10.1 125 g/ha.
Where [16] appears, read: I.1 3.91 g/ha and/or b10.1 250 g/ha.
Where [17] appears, read: I.1 0.49 g/ha and/or b14.1 7.81 g/ha.
Where [18] appears, read: I.1 0.98 g/ha and/or b14.1 15.63 g/ha.
Where [19] appears, read: I.7 200 g/ha and/or c.1 200 g/ha.
Where [20] appears, read: I.7 400 g/ha and/or c.1 400 g/ha.
[21] abbreviates: 21 days, application rate g/ha: I.7 1.95, b3.2 62.5.
[22] abbreviates: 21 days, application rate g/ha: I.7 3.91, b3.2 125.
Setting [23] is: I.14 0.49 g/ha and/or b13.3 62.5 g/ha.
[24] abbreviates: I.14 0.98 g/ha and/or b13.3 125 g/ha.
[25] abbreviates: I.14 0.49 g/ha and/or b10.3 62.5 g/ha.
[26] abbreviates: I.14 0.49 g/ha and/or b10.3 + c.2 62.5 + 3.13 g/ha.
Where [27] appears, read: I.14 0.49 g/ha and/or b11.1 62.5 g/ha.
Setting [28] is: I.14 0.98 g/ha and/or b10.3 125 g/ha.
[29] abbreviates: I.14 0.98 g/ha and/or b10.3 + c.2 125 + 6.25 g/ha.
[30] abbreviates: I.14 0.98 g/ha and/or b11.1 125 g/ha.

Take `CN(C)S(=O)(=O)NC(=O)c1cc(-n2c(=O)cc(C(F)(F)F)n(C)c2=O)c(F)cc1Cl` [I.1]: the “Herbicidal action against AVEFA found” value in data set [1] (21 days, application rate g/ha: I.1 0.98, b9.1 125) came out at 5%; in data set [1] (21 days, application rate g/ha: I.1 1.95, b9.1 250), 10%; in data set [1] (setting [15]), 10%; in data set [1] (setting [16]), 10%. Further, the “Herbicidal action against ABUTH found” value in data set [2] (21 days, application rate g/ha: I.1 1.95, b1.2 31.25) is 20%; in data set [2] (21 days, application rate g/ha: I.1 3.91, b1.2 62.5) it was 30%. The “Herbicidal action against AMARE found” value in [3] (setting [17]) and in data set [3] (setting [18]) was 60% in each case. Moreover, the “Herbicidal action against BIDPI found” value in data set [4] (setting [17]) amounted to 20%; in data set [4] (setting [18]) it was 30%; in data set [4] (setting [15]), 40%; in [4] (setting [16]), 50%. For the same compound, the “Herbicidal action against POLPE found” value in data set [5] (application rate g/ha: I.1 0.49, b4.1 0.98) was 10%; in data set [5] (application rate g/ha: I.1 0.98, b4.1 1.95) it was 25%. The “Herbicidal action against GALAP found” value in data set [6] (21 days, application rate g/ha: I.1 1.95, b1.1 62.5) stood at 20%; in data set [6] (21 days, application rate g/ha: I.1 1.95, b1.3 + c.1 62.5 + 67.5), 50%; in [6] (21 days, application rate g/ha: I.1 3.91, b1.1 125) it was 20%; in [6] (21 days, application rate g/ha: I.1 3.91, b1.3 + c.1 125 + 135.9) it was 60%.
On to `CC(C)N(C)S(=O)(=O)NC(=O)c1cc(-n2c(=O)cc(C(F)(F)F)n(C)c2=O)c(F)cc1Cl` [I.7], for which the “Herbicidal action against AVEFA found” value in data set [1] (21 days, application rate g/ha: I.7 1.95, b3.1 62.5) was found to be 10%; in data set [1] (21 days, application rate g/ha: I.7 1.95, b6.1 125) it was 10%; in data set [1] (21 days, application rate g/ha: I.7 1.95, b7.1 250) it was 10%; in data set [1] (21 days, application rate g/ha: I.7 3.91, b3.1 125) it was 15%; in [1] (21 days, application rate g/ha: I.7 3.91, b6.1 250), 15%; in [1] (21 days, application rate g/ha: I.7 3.91, b7.1 500), 15%. In addition, the “Herbicidal action against ABUTH found” value turned out to be 0% in data set [2] (21 days, application rate g/ha: I.7 0.98, b3.3 31.25); 0% in data set [2] (21 days, application rate g/ha: I.7 0.98, b3.4 31.25); 30% in [2] (21 days, application rate g/ha: I.7 1.95, b3.3 62.5); 30% in data set [2] (21 days, application rate g/ha: I.7 1.95, b3.4 62.5). For the same compound, the “Damage to crop plant TRZAW” value turned out to be 10% in [7] (setting [19]) and 35% in data set [7] (setting [20]). The “Herbicidal action against ECHCG found” value is reported as 0% in data set [8] (setting [21]) and 30% in data set [8] (setting [22]). The “Herbicidal action against COMBE found” value in [9] (21 days, application rate g/ha: I.7 1.95, b13.1 500) is 0%; in data set [9] (21 days, application rate g/ha: I.7 3.91, b13.1 1000), 0%. Further, the “Herbicidal action against POLPE found” value in data set [5] (application rate g/ha: I.7 1.95, b3.1 62.5) is reported as 0%; in [5] (application rate g/ha: I.7 1.95, b7.1 250) it was 0%; in data set [5] (application rate g/ha: I.7 1.95, b13.1 500) it was 0%; in [5] (application rate g/ha: I.7 3.91, b3.1 125), 25%; in data set [5] (application rate g/ha: I.7 3.91, b7.1 500), 25%; in data set [5] (application rate g/ha: I.7 3.91, b13.1 1000), 25%. Besides, the “Herbicidal action against POAPR” value in [10] (setting [19]) and in data set [10] (setting [20]) was 98% each time. Moreover, the “Herbicidal action against TRFPR” value in data set [11] (setting [19]) and in [11] (setting [20]) was 100% each time. The “Herbicidal action against BRAPL found” value in [12] (setting [21]) turned out to be 40%; in data set [12] (setting [22]), 60%.
As to `CC(C)CN(C)S(=O)(=O)NC(=O)c1cc(-n2c(=O)cc(C(F)(F)F)n(N)c2=O)c(F)cc1Cl` [I.14], the “Herbicidal action against ABUTH found” value is recorded as 0% in [2] (setting [23]) and 20% in data set [2] (setting [24]). Moreover, the “Herbicidal action against ECHCG found” value in [8] (I.14 1.95 g/ha and/or b13.2 125 g/ha) is 40%; in [8] (I.14 3.91 g/ha and/or b13.2 250 g/ha), 70%. Also, the “Herbicidal action against BIDPI found” value came to 40% in data set [4] (21 days, application rate g/ha: I.14 1.95, b10.2 250) and 85% in data set [4] (21 days, application rate g/ha: I.14 3.91, b10.2 500). The results for the “Herbicidal action against COMBE found” value in data set [9] (I.14 1.95 g/ha and/or b.15.1 125 g/ha) and in data set [9] (I.14 3.91 g/ha and/or b.15.1 250 g/ha) were 0% and 40%, respectively. Moreover, the “Herbicidal action against SETFA found” value in [13] (setting [25]) is 20%; in data set [13] (setting [26]), 20%; in data set [13] (setting [27]), 20%; in data set [13] (setting [28]), 25%; in data set [13] (setting [29]), 25%; in data set [13] (setting [30]), 25%. For the same compound, the “Herbicidal action against ALOMY found” value in data set [14] (application rate g/ha: I.14 0.49, b2.3 0.98) was 0%; in [14] (application rate g/ha: I.14 0.98, b2.3 1.95), 0%. In addition, the “Herbicidal action against GALAP found” value turned out to be 0% in data set [6] (setting [25]); 0% in data set [6] (setting [26]); 0% in data set [6] (setting [27]); 25% in data set [6] (setting [28]); 25% in data set [6] (setting [29]); 25% in [6] (setting [30]). Further, the “Herbicidal action against BRAPL found” value is 0% in data set [12] (21 days, application rate g/ha: I.14 0.49, b2.3 0.98); 0% in data set [12] (21 days, application rate g/ha: I.14 0.98, b2.3 1.95); 10% in data set [12] (setting [23]); 15% in [12] (setting [24]).
Take `C/C(=N\NC(=O)Nc1cc(F)cc(F)c1)c1ncccc1C(=O)O` [b14.1, diflufenzopyr sodium salt, reference compound]: the “Herbicidal action against AMARE found” value in data set [3] (setting [17]) and in [3] (setting [18]) was 0% each time. Moreover, the “Herbicidal action against BIDPI found” value in [4] (setting [17]) turned out to be 20%; in data set [4] (setting [18]) it was 30%.
